US12473533B2, “Gene targets for T-cell-based immunotherapy” (The Regents of the University of California, priority 2018, dated 2025)

System: primary human T cells
Assay: Genome-wide SLICE pooled CRISPR screen: CFSE-sorted proliferation after TCR stimulation
Format: cell-based
Conditions: log2 fold-change of sgRNA, dividing over non-dividing cells; positive hits from GW screen
Excerpt: To take full advantage of this platform, we scaled-up from the targeted pilot screen to genome-wide (GW) scale (Doench et al., 2016), transducing a library of 77,441 sgRNAs (19,114 genes) into T cells from two healthy donors. After confirming successful transduction of these primary human T cells (FIG. 8,A-B), the cells were re-stimulated and then FACS sorted into non-proliferating and highly-proliferating populations based on CFSE levels (FIG. 8C and Experimental Procedures). MAGeCK software (Li et al., 2014) was used to systematically identify genes that are positively or negatively selected in the proliferating population of T cells. Top positive and negative regulators from the pilot screen were confirmed in both biological replicates of the GW screen along with numerous other hits (FIG. 2A, B). To hone the list of top candidates, we performed an independent secondary screen in cells from two additional human blood donors. The results were well correlated between the primary and secondary screens (FIG. 2C). Furthermore, integrated analysis of the two independent screens performed on a total of four human blood donors provided improved power for target discovery, particularly for negative regulators of T cell proliferation (FIG. 8D). To confirm that hits are in fact dependent on TCR stimulation, we performed GW screens with increasing levels of TCR stimulation. […] The observed dose-response confirmed that the majority of the screen hits are dependent on the TCR stimulus and serve to tune resulting proliferative responses. Taken together these screens identified dozens of genetic perturbations that positively and negatively modulate T cell proliferation.
24 hours post stimulation, lentivirus was added directly to cultured T cells at a 1:300 v/v ratio and gently mixed by tilting. Following 24 hours, cells were collected, pelleted, and resuspended in Lonza electroporation buffer P3 (Lonza, Cat #V4XP-3032) at 20e6 cells/100 μl. Next, Cas9 protein (MacroLab, Berkeley, 40 μM stock) was added to cell suspension at 1:10 v/v ratio. Cells were electroporated at 20e6 cells per cuvette using the pulse code EH115 (Lonza, cat #VVPA-1002). The total number of cells for electroporation was scaled as required. Immediately after electroporation, 1 mL of pre-warmed media was added to each cuvette and cuvettes were placed at 37 degrees for 20 minutes. Cells were then transferred to culture vessels in X-Vivo media containing 50 U/ml IL-2 at 1e6 cells/ml in appropriate tissue culture vessels. Cells were expanded every two days, adding fresh media with IL-2 at 50 U/ml and maintaining the cell density at 1e6 cells/ml.
Cultured cells were collected, spun, washed with PBS, and then resuspended at 1-10 million cells/ml in PBS. CFSE (Biolegend, Cat #423801) was prepared per the manufacturer's protocol to make a 5 mM stock solution in DMSO. This stock solution was diluted 1:1000 in PBS for a 5 μM working solution, and then added in a 1:1 v/v ratio to cell suspension. After mixing, cells were incubated for 5 minutes in the dark at room temperature. The stain was then quenched with a volume of media that was at least 5× the stain volume (e.g. 2 ml+10 ml), and incubated for one minute at room temperature in the dark. Cells were then spun down and resuspended in media prior to restimulation.
PBMCs from multiple human healthy human donors were isolated from TRIMA residuals (see methods). TRIMA residuals were purchased from Blood Centers of the Pacific. After CD8 T cells isolation as above (Day 0), cells were rested in X-Vivo media overnight and then stimulated with plate-bound anti-human CD3/CD28 and IL-2 at 50 U/mL the following day (Day 1). 24 hours after stimulation (Day 2), cells were transduced with concentrated lentivirus encoding the pooled sgRNA library (see methods). […] after transduction (Day 3), cells were electroporated with CAS9 protein (methods). […]

Sequence | LFC (~effect magnitude)
AAGCGTCAAAAGTCTGCCAG (chemistry not given here) [SEQ ID NO: 9, sgRNA targeting CD5] | 0.5512
ACGGACATGAAGCAATATCA (listed as DNA, chemistry not fully specified) [SEQ ID NO: 34, sgRNA targeting TMEM222] | 1.0461
AGAGCATTATGGGCAGACAG (listed as DNA, chemistry not fully specified) [SEQ ID NO: 22, sgRNA targeting GNA13] | 0.3825
AGATATCACACATTACAGTG (listed as DNA, chemistry not fully specified) [SEQ ID NO: 25, sgRNA targeting RASA2] | 0.861
AGGATCGACTTGTGGAACAA (listed as DNA, chemistry not fully specified) [SEQ ID NO: 27, sgRNA targeting RASA2] | 0.4134
AGGCTCCAGGAATGTCCGCG (listed as DNA, chemistry not fully specified) [SEQ ID NO: 20, sgRNA targeting DGKZ] | 0.4227
AGGTTCCAGGTCCGATCCAG (listed as DNA, chemistry not fully specified) [SEQ ID NO: 10, sgRNA targeting CD8A] | 0.8084
AGTTCTACTACAGACCCCCG (chemistry not given here) [SEQ ID NO: 12, sgRNA targeting CDKN1B] | 0.8623
CAAGTACCGACGCGCCAGCG (listed as DNA, chemistry not fully specified) [SEQ ID NO: 23, sgRNA targeting MEF2D] | 0.7255
CAGCACTAGCAGTGGCACGG (chemistry not given here) [SEQ ID NO: 15, sgRNA targeting DGKA] | 0.722
CATCATCCCTCACGGACCCG (listed as DNA, chemistry not fully specified) [SEQ ID NO: 24, sgRNA targeting MEF2D] | 0.46
CCACTTGTTAACAGAGACCG (listed as DNA, chemistry not fully specified) [SEQ ID NO: 38, sgRNA targeting TNFAIP3] | 0.633
CCAGTACAAACCCCAGAACG (listed as DNA, chemistry not fully specified) [SEQ ID NO: 40, sgRNA targeting UBASH3A] | 0.6566
CCCCGTGCAGCGAGTCAGAG (listed as DNA, chemistry not fully specified) [SEQ ID NO: 18, sgRNA targeting DGKZ] | 0.4938
CCGCTTTCCAGTGACCGACG (listed as DNA, chemistry not fully specified) [SEQ ID NO: 21, sgRNA targeting FIBP] | 0.5586
CCTGTACCCGAATAACCATG (listed as DNA, chemistry not fully specified) [SEQ ID NO: 4, sgRNA targeting ARIH2] | 0.3813
CGAAAAAGCAGTTCCGCTGG (listed as DNA, chemistry not fully specified) [SEQ ID NO: 30, sgRNA targeting SOCS1] | 0.6088
CGGCGTGCGAACGGAATGTG (listed as DNA, chemistry not fully specified) [SEQ ID NO: 31, sgRNA targeting SOCS1] | 0.7842
CGGCTCAGCTGGTATGACCC (chemistry not given here) [SEQ ID NO: 8, sgRNA targeting CD5] | 1.4145
CGTGCTGGTGGTTCGCCACG (listed as DNA, chemistry not fully specified) [SEQ ID NO: 39, sgRNA targeting UBASH3A] | 1.0191
CTCCCAAACTGACCTCTAGG (listed as DNA, chemistry not fully specified) [SEQ ID NO: 16, sgRNA targeting DGKA] | 0.7081
